Columns and labels:
[1] = Plasma protein binding (ultrafiltration), rat; format: in vitro ADME; conditions: male, Sprague Dawley, 50 to 50 000 ng/mL, mean ± SD, n = 3, read-out: percentage protein binding (converted)
Procedure: [^14C]‐Ataluren, at 50, 500, 5000, and 50 000 ng/mL or 0.175, 1.75, 17.5, and 175 µM, in male mouse, rat, dog, monkey, and human plasma, was incubated (n = 3) at 37°C for approximately 15 minutes, transferred into Centrifree® Micropartition Units (30 000 Da molecular weight cutoff, 1 mL capacity; Amicon Inc), and centrifuged at 37°C and 2000 g for approximately 10 minutes so that the amount of the sample filtered was approximately ≤ 20% of the total volume. After centrifugation, the entire ultrafiltrate was weighed and analyzed for radioactivity using liquid scintillation counting. The percent bound = (1‐Cu/Cm)×100, where Cu is the concentration of radioactivity in the ultrafiltrate and Cm is the concentration of radioactivity in the plasma before centrifugation.

[2] = Glucuronidation in liver microsomes (tissue comparison); format: in vitro ADME, human; conditions: 10 μmol/L, 60 minutes, n = 1
CYP2C9 = target: T1, CYP2C9 (Homo sapiens, UniProt P11712); assay: CYP inhibition in pooled human liver microsomes: CYP2C9; format: in vitro ADME
T1 construct: tissue XenoTech LLC, Celsis-In Vitro Technologies, or Tissue Transformation Technologies; host or cells: pooled human liver microsomes
T1 sequence (P11712 whole entry): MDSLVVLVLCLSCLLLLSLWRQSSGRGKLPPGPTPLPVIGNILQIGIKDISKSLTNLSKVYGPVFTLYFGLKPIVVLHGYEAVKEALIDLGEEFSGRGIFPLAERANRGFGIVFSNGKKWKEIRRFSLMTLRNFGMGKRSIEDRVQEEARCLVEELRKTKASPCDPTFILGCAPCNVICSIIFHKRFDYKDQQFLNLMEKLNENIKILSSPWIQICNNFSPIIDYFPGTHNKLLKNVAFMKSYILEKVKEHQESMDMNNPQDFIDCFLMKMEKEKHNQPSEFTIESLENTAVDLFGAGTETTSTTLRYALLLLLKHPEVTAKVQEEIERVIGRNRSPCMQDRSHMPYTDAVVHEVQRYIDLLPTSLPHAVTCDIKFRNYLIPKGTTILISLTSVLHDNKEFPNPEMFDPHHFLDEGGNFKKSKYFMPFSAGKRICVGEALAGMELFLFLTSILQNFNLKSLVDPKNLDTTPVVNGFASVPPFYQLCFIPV
Procedure: (§1) The final concentration of each probe substrate was near the experimentally determined Km value for the indicated enzyme. Ataluren or prototypical CYP inhibitors (positive controls) was incubated (n = 3) with probe substrates and HLM in 100 mmol/L phosphate buffer (pH 7.4) in a total volume of approximately 0.25 mL, and the reactions were initiated by the addition of 1 mmol/L NADPH at 37°C. The reactions were carried out using previously established conditions to ensure linearity with respect to protein concentration and incubation time (Table S1). Incubations were stopped with the addition of ice‐cold acetonitrile. Metabolite formation in incubations with test compound and control inhibitors was assessed with LC‐MS/MS methods for each of the reaction products as described in Table S2. […] After 7 minutes incubation at 37°C, the reaction was stopped by the addition of ice‐cold acetonitrile, followed by membrane plate filtration. The filtrates were used for LC‐MS/MS analysis. Enzyme activity remaining at each nonzero ataluren concentration after incubation was normalized against control sample (zero ataluren concentration, enzyme activity = 100%), and the % remaining enzyme activity values were used for IC50 calculation. IC50 values were determined by nonlinear regression with GraphPad Prism 5 using the following four‐parameter sigmoidal‐logistic IC50 equation: Fit=background+range-background/[1+I/IC50^slope]
(§2) Where, I is the inhibitor concentration, and background was set to 0 and range to 100, as percent of control values are utilized. K i was determined by nonlinear regression with GraphPad Prism 5 using best fit model.

CYP3A4/5 = assay: CYP inhibition in pooled human liver microsomes: CYP3A4/5; format: in vitro ADME
Procedure: as §1, §2

## O=C(O)c1cccc(-c2noc(-c3ccccc3F)n2)c1 [ataluren, Ataluren]
[1]
  fraction unbound at 15 min: 0.013
[2]
  ataluren loss: 31.4%
CYP2C9; CYP2C9, competitive, mean ± SE, n = 3
  Ki: 75.4 ± 4.42 µM
CYP2C9; CYP2C9, tolbutamide methyl hydroxylase
  mechanism of inhibition: competitive inhibitor
CYP2C9; Diclofenac 4′-hydroxylase, pooled HLM, n=3, (95% confidence interval)
  IC50: 135 µM
CYP2C9; human, pooled human liver microsomes, pH 7.4, CYP2C9, HLM
  IC50: 134 µM
CYP3A4/5; pH 7.4, CYP3A4/5, HLM, estimated, concentrations up to 400 μmol/L, substrate not stated
  IC50: > 400 µM
CYP3A4/5; pH 7.4, probe midazolam (1′-hydroxylation), Midazolam 1′-hydroxylase, pooled HLM, n=3
  IC50: > 400 µM
CYP3A4/5; pH 7.4, probe testosterone (6β-hydroxylation), Testosterone 6β-hydroxylase, pooled HLM, n=3
  IC50: > 400 µM

— paper PMC7083565, “In vitro metabolism, reaction phenotyping, enzyme kinetics, CYP inhibition and induction potential of ataluren” (Pharmacology Research & Perspectives, 2020)
